Measured values taken from patent US11447534B2, “Peptide complex with immunodulatory and anti-inflammatory function” (NATIONAL INSTITUTE OF IMMUNOLOGY, priority 2018, dated 2022).
Entries after “also recorded” stand apart in the source; their conditions may differ.

Key:
[1] = system: RAW264.7 macrophages; assay: qPCR of Cd74, Cd36 in serum starved macrophages; format: cell-based, murine; conditions: unstimulated RAW264.7 macrophages, with respect to basal
[2] = target: T1, Abeta42 (Homo sapiens, UniProt P05067); assay: Abeta42 fibrillization in situ (TEM, Thioflavin T binding assay); format: biochemical
T1 construct: of Abeta 1-42 peptide; Molecular weight = 4514.1; purchased r-peptide
T1 sequence (P05067 672-713): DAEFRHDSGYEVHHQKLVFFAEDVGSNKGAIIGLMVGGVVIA
Experimental: For this study, different concentrations of Glu-OC viz. […] After keeping the samples for 5 minutes, the excess was washed off with ultrapure water and surplus sample and water were wicked away using absorbent paper. The samples were negatively stained using 1% uranyl acetate stain, dried and analyzed in a transmission electron microscope CM10 Philips operated at 80 kV. […] ThT assay measures the changes in fluorescence intensity of ThT upon binding to amyloid fibrils. […] The resulting ThT fluorescence intensities of samples were measured at an emission wavelength of 480 nm and excitation wavelength of 440 nm and 5 nm slit width using a Jobin Vyon Horiba Fluoromax-4 spectrofluorimeter. The inner filter effect was taken into account using the Equation: Fc=F×anti log[(Aex+Aem)/2] where Fc is the corrected flourescence and F is apparent fluorescence, Aex and Aem are the absorbances of the samples at excitation and emission wavelengths respectively.

[3] = system: 5×FAD Tg mice; assay: Morris water maze test in 5×FAD Tg mice; format: in vivo; conditions: 300 ng per mouse subcutaneously for 2 months, vs 5×FAD Tg control
Experimental: (§1) Two month old 5×FAD Tg mice, both male as well as female were used for the study. For the purposes of this study wild type mice is referred to as Wt and 5×FAD mice is referred to as Tg. For experimentation, the mice were divided in below groups for treatment: 1. Wild type mice given vehicle (1×PBS or phosphate buffered saline; pH 7.4). 2. 5×FAD Transgenic mice given vehicle. 3. 5×FAD Transgenic mice given undercarboxylated osteocalcin (Glu-OC) subcutaneously at dose of 300 ng per mouse of weight ranging from 25-28 g for 2 months.
Glu-OC at a dose of 300 ng per mouse was administered subcutaneously for 2 months. To evaluate the potential of Glu-OC against development of Alzheimer's disease in 5×FAD Tg mice (a mouse model for Alzheimer's disease), the following methodologies used conducted: Morris water maze (MWM) test, immunohistochemistry, double immunostaining, ELISA and Congo Red staining. […] The training was given for the five consecutive days, with the video recording and the track of the animal was also recorded using the Any-maze animal behaviour software. Time taken to find the hidden platform is calculated and plotted.

[4] = system: 5×FAD Tg mice; assay: Brain amyloid pathology by Congo Red staining and fibrillar Abeta42 immunostaining; format: in vivo, mouse; conditions: for amyloid pathology / deposits in brain (Congo Red): 300 ng per mouse subcutaneously for 2 months
Experimental: as §1
(§2) For immunohistochemistry, sacrificed animals were perfused using 4% paraformaldehyde perfusion through the heart and the brains were harvested and submerged in the same fixative for not more than 24 hours. Brains were then washed in 1×PBS (pH 7.4) and placed in 30% sucrose-PBS solution where these initially floated owing to the weight of the sucrose. Upon saturation, the brains sank to the bottom of the sucrose solution. These were then removed and washed in PBS. Brain samples were quick frozen in liquid nitrogen and then embedded in polyfreeze tissue freezing medium in a plastic mould inside a cryostat where in temperature was −20° C. The samples were then stored in −80° C. until sectioning. Sections of 15-20 micrometre was cut in a cryostat and laid over high adsorbent microslides. For unmasking antigens, slides were heated at 55° C. for 10 min followed by hydration in PBS for 5 min and then permeabilization using 0.1% Triton X-100 in PBS containing 1% BSA and 1% normal goat serum (IHC buffer). For immunostaining, brain sections were incubated in primary antibodies (fibrillar Amyloid beta antibody, catalogue number MABN638 was from Millipore-Merk; osteocalcin antibody-catalogue number sc365797 was from Santa Cruz Biotechnology; Abeta1-42 antibody D923A #14974 was from Cell Signaling Technology) diluted in IHC buffer in a humidified chamber at room temperature overnight. For double immunostaining, specific antibodies against Abets42 and osteocalcin were incubated together with brain sections. […]

[5] = system: 5×FAD Tg mice; assay: ELISA of soluble and insoluble Abeta42 in brain; format: in vivo, mouse; conditions: vs 5×FAD Tg control
Experimental: as §1
as §2, with “sections. After rinsing with PBS three times for 5 min each, sections were incubated with the appropriate secondary antibody conjugated with AlexaFluor 594 or 488 (Molecular Probes, Invitrogen) for 2 h at room temperature. After rinsing with PBS, the coverslips were mounted with ProLong anti-fade mounting medium containing 4′,6-diamidino-2-phenylindole (DAPI) and imaged. Congo Red staining was done using staining kit from Abcam (ab150663) according to manufacturer's instructions. ELISA or enzyme linked immunosorbent assay was conducted on soluble and insoluble fractions prepared from brain samples. (a.) Preparation of soluble or DEA fraction or non-plaque associated Abeta.” for “sections.”

[6] = system: RAW264.7 macrophages; assay: Lactate dehydrogenase (LDH) assay in macrophages; format: cell-based, murine; conditions: macrophages, serum starved, 1 hour
Experimental: Effect of Abeta-Glu-OC (3 ng) mixture on macrophage integrity: To determine whether the mixture produced any toxicity lactate dehydrogenase (LDH) assay was performed. Briefly, the cells were incubated with the mixture under serum starved conditions for 1 hour followed by LDH assay. LDH was assayed using In vitro toxicology assay kit from Sigma-Aldrich, St. Louis, Mo., USA (cat. no.-TOX7) as per the manufacturer's directions. LDH assay substrate solution, LDH assay dye solution and 1×LDH assay cofactor were provided with the kit. […] To this LDH assay mixture was added and incubated at room temperature in the dark for 20-30 min. The reaction was terminated by the addition of 1/10 volume of 1N HCl. Absorption was taken 490 nm with the help of in a Tecan Microplate reader, Switzerland with Magellan™ software.

[7] = system: carrageenan induced paw edema; assay: Carrageenan induced paw inflammation in mice; format: in vivo, mouse; conditions: Ibuprofen 100 mg/kg, 5th hour
Experimental: The effect of A-O complex was tested under in vivo conditions. Carrageenan, an inflammation inducing agent was injected into the hind foot pad of mouse to induce acute inflammation. The edema attains peak at around 3 hours post carrageenan challenge. This is a convenient model to assess the anti-inflammatory potency of test drugs to reduce or prevent the development of swelling. The protocol followed herein is as per Morris (2003) [Morris C J, 2003, Carrageenan induced paw edema in rat and mouse. In: Winyard P. G., Willoughby D. A. (eds) Inflammation Protocols. Methods in Molecular Biology, Vol 225. Humana Press. Pp 115-121].
Preparation of carrageenan: To prepare 0.5% of carrageenan solution, 50 mg of lamda-carrageenan ([…], Sigma Chemical Co., St. Louis, Mo., USA) was slowly added onto a small beaker containing 10 ml of normal saline. The powder was allowed to swell for some time and then slightly heated (not boiled) to dissolve the carrageenan. The solution was stirred during the heating. Once dissolved, the solution was cooled and aliquoted and stored at 4 degree Celsius.
Method: For experiment, the mice were acclimatized in cages under standard light and temperature settings with access to food and water ad libitum. Mice were acclimatized for 1 week in respective cages to minimize stress. At the day of experiment, mice were placed in a temporary animal restraint and 50 microlitre of carrageenan solution was administered by intraplantar injection to the right hind paw of each mouse. The left paw served as control and was administered 50 microlitre of normal saline.
To determine the efficacy of A-O complex different concentrations of complex viz. 5, 20 and 50 microgram per 100 g body weight of mice were administered intraperitoneally 1 hour before carrageenan challenge. Ibuprofen (100 mg/kg, Sigma Chemical Co., St. Louis, Mo., USA) served as positive control for the experiment. Paw size was measured by wrapping a piece of cotton thread round the paw of each […] and recording the length of the thread, the paw circumference, by use of a metric ruler. Paws were measured immediately before and at specified time points after carrageenan injection. Inhibitory activity was calculated at 1-5 h after carrageenan injection with the following formula: % Inhibition=[(Ct−C0)control−(Ct−C0)treated]/(Ct−C0)control×100, where Ct is paw size after carrageenan injection and C0 is paw size before carrageenan injection.

undercarboxylated osteocalcin [Glu-OC]
increase in mRNA level of Cd36 [1]: do not elicit induction
increase in mRNA level of Cd74 (MHC-II) [1]: do not elicit induction
Abeta42 fibrillization (TEM) ([2]; Abeta42 100 micromolar with 3 ng of osteocalcin): Mature fibrils
Abeta42 fibrillization (TEM) ([2]; Abeta42 100 micromolar, Glu-OC 3-10 ng or none, 1×PBS pH 7.4, 37° C., 8 hours): demonstrated fibrillization
escape latency (Morris water maze) [3]: lower escape latency; also recorded: reduced escape latency
amyloid pathology / deposits in brain (Congo Red) [4]: significant reduction in amyloid pathology
amyloid pathology / deposits in brain (Congo Red) ([4]; listed as Gla-OC): lesser amyloid deposits
fibrillar Abeta42 immunostaining of brain ([4]; fibrillar specific Abeta42 antibody): fewer yet larger Abeta42+ fibrillar amyloid deposits; also recorded: positive for intense fibrillar Abeta42 structures
insoluble (plaque associated) Abeta42 level in brain [5]: reduced
soluble Abeta42 level in brain [5]: increased
insoluble (plaque associated) Abeta42 level in brain ([5]; listed as Gla-OC): significantly reduced
soluble Abeta42 level in brain ([5]; listed as Gla-OC): significantly increased

OO [H2O2, hydrogen peroxide]
LDH in cell culture supernatants (LDH release) [6]: induces LDH release
intracellular LDH ([6]; vs control): rise in intracellular LDH

CC(C)Cc1ccc(C(C)C(=O)O)cc1 (stereo not drawn) [Positive control, Ibuprofen, reference compound]
edema inhibition [7]: 78%
